Measurements as given in publication PMC10653643 (Journal of Enzyme Inhibition and Medicinal Chemistry, 2023).
Read-outs that look alike come from different tables or passages of the source.

Legend:
[1] = target: H1N1 neuraminidase (NA), group-1 (Influenza A virus, UniProt P03468); assay: biochemical
[2] = system: A/PR/8/34 (H1N1) virus in MDCK cells; assay: microbe, parasite or virus in culture; type: cell-based, influenza A virus H1N1; conditions: read-out: EC50 towards influenza virus H1N1
[3] = system: A/Wisconsin/67/05 (H3N2) virus in MDCK cells; assay: microbe, parasite or virus in culture; type: cell-based, influenza A virus H3N2; conditions: for EC50: read-out: EC50 towards influenza virus H3N2
in vitro = conditions: dog
[4] = Influenza A virus, H1N1|PR/8, MDCK

Chain of H1N1 neuraminidase (NA), group-1 (P03468 36-454 limits assumed): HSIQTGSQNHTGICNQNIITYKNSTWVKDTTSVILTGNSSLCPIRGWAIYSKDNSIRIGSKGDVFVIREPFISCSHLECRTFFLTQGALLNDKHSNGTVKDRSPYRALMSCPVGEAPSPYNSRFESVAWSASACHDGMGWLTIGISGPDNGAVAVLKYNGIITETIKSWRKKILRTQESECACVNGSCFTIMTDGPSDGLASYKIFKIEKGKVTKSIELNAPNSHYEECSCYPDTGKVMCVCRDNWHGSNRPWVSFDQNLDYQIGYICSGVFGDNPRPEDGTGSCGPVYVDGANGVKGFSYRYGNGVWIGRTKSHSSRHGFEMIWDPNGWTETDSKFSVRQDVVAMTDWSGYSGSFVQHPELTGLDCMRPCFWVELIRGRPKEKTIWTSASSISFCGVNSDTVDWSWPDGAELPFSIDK

CCC(CC)O[C@@H]1C=C(C(=O)O)C[C@H](NCc2ccc(N3CCC4(CC3)CN(C(=O)OC(C)(C)C)C4)cc2)[C@H]1NC(C)=O [6a, (3R,4R,5S)-4-acetamido-5-((4–(2-(tert-butoxycarbonyl)-2,7-diazaspiro[3.5]nonan-7-yl)benzyl)amino)-3-(pentan-3-yloxy)cyclohex-1-ene-1-carboxylic acid]
IC50 [1]: 3940 ± 110 nM

CCC(CC)O[C@@H]1C=C(C(=O)O)C[C@H](NCc2ccc(-c3cncnc3)cc2)[C@H]1NC(C)=O [3c, (3R,4R,5S)-4-acetamido-3-(pentan-3-yloxy)-5-((4-(pyrimidin-5-yl)benzyl)amino)cyclohex-1-ene-1-carboxylic acid]
IC50 [1]: 12100 ± 1100 nM

CCC(CC)O[C@@H]1C=C(C(=O)O)C[C@H](N)[C@H]1NC(C)=O [OSC, oseltamivir carboxylate, reference compound]
EC50 [2]: […] | EC50 [3]: 360 ± 160 nM | CC50 (in vitro): > 250000 nM

CCC(CC)O[C@@H]1C=C(C(=O)O)C[C@H](NCc2ccc(N3CC4CC4C3)cc2)[C@H]1NC(C)=O (stereo partly drawn) [6g, (3R,4R,5S)-5-((4–(3-azabicyclo[3.1.0]hexan-3-yl)benzyl)amino)-4-acetamido-3-(pentan-3-yloxy)cyclohex-1-ene-1-carboxylic acid]
IC50 [1]: 190 ± 9.6 nM | EC50 [2, 4]: 30 ± 30 nM | fold activity enhancement over zanamivir (ZA) against H3N2 virus [3]: ~2 fold | EC50 ([3]; Influenza A virus, H3N2, MDCK): 160 ± 80 nM | CC50 (in vitro): > 250000 nM

CCC(CC)O[C@@H]1C=C(C(=O)O)C[C@H](NCc2ccc(N3CC4CCCCC4C3)cc2)[C@H]1NC(C)=O (stereo partly drawn) [6i, (3R,4R,5S)-4-acetamido-5-((4-(octahydro-2H-isoindol-2-yl)benzyl)amino)-3-(pentan-3-yloxy)cyclohex-1-ene-1-carboxylic acid]
IC50 [1]: 150 ± 31 nM | EC50 [2, 4]: 30 ± 30 nM | EC50 ([3]; Influenza A virus, H3N2, MDCK): 320 ± 80 nM | CC50 (in vitro): > 250000 nM

CCC(CC)O[C@@H]1C=C(C(=O)O)C[C@H](NCc2ccc(-c3cnc(Cl)nc3)cc2)[C@H]1NC(C)=O [3d, (3R,4R,5S)-4-acetamido-5-((4–(2-chloropyrimidin-5-yl)benzyl)amino)-3-(pentan-3-yloxy)cyclohex-1-ene-1-carboxylic acid]
IC50 [1]: 4340 ± 360 nM

CCC(CC)O[C@@H]1C=C(C(=O)O)C[C@H](NCc2ccc(N3CC4(CN(C(=O)OC(C)(C)C)C4)C3)cc2)[C@H]1NC(C)=O [6d, (3R,4R,5S)-4-acetamido-5-((4–(6-(tert-butoxycarbonyl)-2,6-diazaspiro[3.3]heptan-2-yl)benzyl)amino)-3-(pentan-3-yloxy)cyclohex-1-ene-1-carboxylic acid]
IC50 [1]: 3100 ± 240 nM

CCC(CC)O[C@@H]1C=C(C(=O)O)C[C@H](NCc2ccc(N(C)CC)cc2)[C@H]1NC(C)=O [6o, (3R,4R,5S)-4-acetamido-5-((4-(ethyl(methyl)amino)benzyl)amino)-3-(pentan-3-yloxy)cyclohex-1-ene-1-carboxylic acid]
IC50 [1]: 360 ± 18 nM

CCC(CC)O[C@@H]1C=C(C(=O)O)C[C@H](NCc2ccc(N3CC4(CCN(C(=O)OC(C)(C)C)CC4)C3)cc2)[C@H]1NC(C)=O [6c, (3R,4R,5S)-4-acetamido-5-((4–(7-(tert-butoxycarbonyl)-2,7-diazaspiro[3.5]nonan-2-yl)benzyl)amino)-3-(pentan-3-yloxy)cyclohex-1-ene-1-carboxylic acid]
IC50 [1]: 1400 ± 73 nM

CCC(CC)O[C@@H]1C=C(C(=O)O)C[C@H](NCc2ccc(N3CCC4(CC3)OCCO4)cc2)[C@H]1NC(C)=O [6e, (3R,4R,5S)-5-((4–(1,4-dioxa-8-azaspiro[4.5]decan-8-yl)benzyl)amino)-4-acetamido-3-(pentan-3-yloxy)cyclohex-1-ene-1-carboxylic acid]
IC50 [1]: 1990 ± 190 nM

CCC(CC)O[C@@H]1C=C(C(=O)O)C[C@H](NCc2ccc(-c3c(C)nc(N)nc3C)cc2)[C@H]1NC(C)=O [3e, (3R,4R,5S)-4-acetamido-5-((4–(2-amino-4,6-dimethylpyrimidin-5-yl)benzyl)amino)-3-(pentan-3-yloxy)cyclohex-1-ene-1-carboxylic acid]
IC50 [1]: 8060 ± 480 nM

CCC(CC)O[C@@H]1C=C(C(=O)O)C[C@H](NCc2ccc(N3CCC4(CCN(C(=O)OC(C)(C)C)C4)C3)cc2)[C@H]1NC(C)=O (stereo partly drawn) [6b, (3R,4R,5S)-4-acetamido-5-((4–(7-(tert-butoxycarbonyl)-2,7-diazaspiro[4.4]nonan-2-yl)benzyl)amino)-3-(pentan-3-yloxy)cyclohex-1-ene-1-carboxylic acid]
IC50 [1]: 400 ± 33 nM

CCC(CC)O[C@@H]1C=C(C(=O)O)C[C@H](NCc2ccc(N3CC4C(C3)C4(C)C)cc2)[C@H]1NC(C)=O (stereo partly drawn) [6f, (3R,4R,5S)-4-acetamido-5-((4–(6,6-dimethyl-3-azabicyclo[3.1.0]hexan-3-yl)benzyl)amino)-3-(pentan-3-yloxy)cyclohex-1-ene-1-carboxylic acid]
IC50 [1]: 430 ± 36 nM

CC(=O)N[C@H]1[C@H]([C@H](O)[C@H](O)CO)OC(C(=O)O)=C[C@@H]1N=C(N)N [ZA, zanamivir, reference compound]
EC50 [2, 4]: […] | EC50 ([3]; Influenza A virus, H3N2, MDCK): 270 ± 30 nM | CC50 (in vitro): > 250000 nM

CCC(CC)O[C@@H]1C=C(C(=O)O)C[C@H](NCc2ccc(N3CCC3)cc2)[C@H]1NC(C)=O [6n, (3R,4R,5S)-4-acetamido-5-((4-(azetidin-1-yl)benzyl)amino)-3-(pentan-3-yloxy)cyclohex-1-ene-1-carboxylic acid]
IC50 [1]: 140 ± 10 nM

CCC(CC)O[C@@H]1C=C(C(=O)O)C[C@H](NCc2ccc(N3CCC[C@H]3C)cc2)[C@H]1NC(C)=O [6k, (3R,4R,5S)-4-acetamido-5-((4-((R)-2-methylpyrrolidin-1-yl)benzyl)amino)-3-(pentan-3-yloxy)cyclohex-1-ene-1-carboxylic acid]
IC50 [1]: 84 ± 7.2 nM | EC50 [2, 4]: 20 ± 10 nM | fold activity enhancement over OSC against H3N2 virus [3]: ~3 fold | fold activity enhancement over zanamivir (ZA) against H3N2 virus [3]: ~2 fold | EC50 ([3]; Influenza A virus, H3N2, MDCK): 120 ± 30 nM | CC50 (in vitro): > 250000 nM

CCC(CC)O[C@@H]1C=C(C(=O)O)C[C@H](NCc2ccc(N3CC4CCCC4C3)cc2)[C@H]1NC(C)=O (stereo partly drawn) [6h, (3R,4R,5S)-4-acetamido-5-((4-(hexahydrocyclopenta[c]pyrrol-2(1H)-yl)benzyl)amino)-3-(pentan-3-yloxy)cyclohex-1-ene-1-carboxylic acid]
IC50 [1]: 300 ± 1.6 nM
